The values below come from patent US8124361B2, “Methods of screening for sweet taste modulators” (Givaudan SA, priority 2006, dated 2012).

For experiment [1], the target named is T1, transmembrane domains of TAS1R (Homo sapiens, UniProt Q7RTX0+Q8TE23, C757R).
T1 sequence (Q8TE23 20-839): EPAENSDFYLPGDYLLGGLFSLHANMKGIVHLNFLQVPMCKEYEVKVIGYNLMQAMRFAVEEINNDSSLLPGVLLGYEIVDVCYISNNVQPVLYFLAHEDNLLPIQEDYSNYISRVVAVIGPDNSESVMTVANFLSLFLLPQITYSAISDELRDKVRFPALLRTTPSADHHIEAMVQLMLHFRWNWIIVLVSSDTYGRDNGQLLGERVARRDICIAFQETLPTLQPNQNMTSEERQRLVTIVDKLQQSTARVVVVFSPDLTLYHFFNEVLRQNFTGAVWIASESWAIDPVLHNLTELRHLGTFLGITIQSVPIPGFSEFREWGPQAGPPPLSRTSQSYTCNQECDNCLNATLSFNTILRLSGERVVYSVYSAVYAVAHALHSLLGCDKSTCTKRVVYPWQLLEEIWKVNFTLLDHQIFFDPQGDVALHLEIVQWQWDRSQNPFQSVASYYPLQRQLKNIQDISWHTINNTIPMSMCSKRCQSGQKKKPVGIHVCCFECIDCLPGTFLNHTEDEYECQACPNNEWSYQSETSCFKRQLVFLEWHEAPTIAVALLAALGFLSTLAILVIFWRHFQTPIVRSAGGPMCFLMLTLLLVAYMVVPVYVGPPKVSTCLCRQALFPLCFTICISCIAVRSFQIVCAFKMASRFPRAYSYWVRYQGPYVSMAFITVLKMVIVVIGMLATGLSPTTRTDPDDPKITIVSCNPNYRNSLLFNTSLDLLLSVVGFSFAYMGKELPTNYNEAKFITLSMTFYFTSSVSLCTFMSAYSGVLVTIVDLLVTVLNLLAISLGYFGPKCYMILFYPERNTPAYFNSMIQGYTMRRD
T1 sequence (Q7RTX0 21-852 C757R): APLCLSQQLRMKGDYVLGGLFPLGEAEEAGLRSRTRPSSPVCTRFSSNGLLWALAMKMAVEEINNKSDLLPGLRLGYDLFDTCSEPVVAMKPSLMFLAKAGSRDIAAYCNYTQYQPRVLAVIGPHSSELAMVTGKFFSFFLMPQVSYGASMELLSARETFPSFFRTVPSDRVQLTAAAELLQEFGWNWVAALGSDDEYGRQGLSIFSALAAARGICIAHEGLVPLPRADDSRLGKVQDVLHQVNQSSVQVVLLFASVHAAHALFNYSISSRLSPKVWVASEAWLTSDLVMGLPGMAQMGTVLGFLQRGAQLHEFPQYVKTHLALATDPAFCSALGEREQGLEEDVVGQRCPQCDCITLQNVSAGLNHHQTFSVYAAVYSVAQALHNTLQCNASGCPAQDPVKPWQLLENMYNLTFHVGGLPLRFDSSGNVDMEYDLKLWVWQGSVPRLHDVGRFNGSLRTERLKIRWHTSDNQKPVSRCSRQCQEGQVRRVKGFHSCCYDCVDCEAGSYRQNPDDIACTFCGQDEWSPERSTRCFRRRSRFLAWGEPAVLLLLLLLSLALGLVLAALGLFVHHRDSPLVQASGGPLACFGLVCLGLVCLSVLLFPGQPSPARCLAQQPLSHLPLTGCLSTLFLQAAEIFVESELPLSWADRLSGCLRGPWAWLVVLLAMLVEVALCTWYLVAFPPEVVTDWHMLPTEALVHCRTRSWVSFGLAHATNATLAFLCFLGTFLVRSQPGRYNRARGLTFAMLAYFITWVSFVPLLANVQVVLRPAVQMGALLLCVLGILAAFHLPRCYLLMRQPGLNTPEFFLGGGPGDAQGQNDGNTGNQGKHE
The experiment in a line: Identification of candidate sweetness enhancers that bind to the transmembrane domains. The following applies: identified by the applicants as candidate sweetness enhancers. Format: binding.

Experiment [2] deals with sweet sensitive panelists. The experiment in a line: Ranking test of sweetness isointensity (R-index), sensory panel. Format: in vivo, human. The following applies: for sweetness equivalent to sucrose (isointensity): by interpolation; for sample sweetness (0.5% sucrose) / sample sweetness (p-ethoxybenzaldehyde, 75 ppm): nose clips. On the procedure:
(§1) The sensory evaluation was conducted using a ranking method. Samples at ambient temperature were randomly presented in 15 ml blind aliquots (unidentifiable by panelists). Panels consisted of 10 sweet sensitive subjects and samples were presented in 3 replications over 1 session. After tasting each sample, the mouth was rinsed thoroughly with water at ambient temperature prior to tasting the next sample. […] They were asked to rank the samples from low to high with respect to perceived sweet taste.
as §1, with “taste. […] From ranking-style sensory tests, a matrix of responses (see table X below) is constructed such that each cell contains the number of times a given sample was ranked at a particular location.” for “taste.”
Essentially, the R-index is a measure of difference between two samples. The R-index has a chance level of detection of 50%. […] The critical value is the statistically relevant value that the derived R-index must deviate from (i.e greater or less than) in order to be considered significant.

Experiment [3] concerns sweet sensitive panelists. Description: Paired comparison of sweetness versus sucrose, sensory panel. The class given is in vivo, human.

For `C[C@@H]1O[C@@H](O[C@H]2[C@H](Oc3cc(O)c(C(=O)CCc4ccc(O)cc4)c(O)c3)O[C@H](CO)[C@@H](O)[C@@H]2O)[C@H](O)[C@H](O)[C@H]1O` [NarDHC, naringin dihydrochalcone], in experiment [1], the “binding to the transmembrane domains of TAS1R” value (shortened to “binding”) is recorded as “bind to the transmembrane domains of TAS1R”. Also, in experiment [2] (60 ppm NarDHC in water), the “sweetness equivalent to sucrose (isointensity)” value is “about 1.25 % sucrose”. The Result of comparison entry in experiment [3] (45 ppm NarDHC in water vs 0% sucrose) is recorded as “weakly sweeter”; in experiment [3] (45 ppm NarDHC in water vs 0.5% sucrose), “isosweet”; in experiment [3] (45 ppm NarDHC in water vs 1% sucrose), “less sweet”; in experiment [3] (50 ppm NarDHC in water vs 0.5% sucrose), “notably sweeter”; in experiment [3] (50 ppm NarDHC in water vs 1% sucrose) it was “less sweet”; in experiment [3] (55 ppm NarDHC in water vs 0.5% sucrose), “notably sweeter”. Further, the Result of comparison result in experiment [3] (55 ppm NarDHC in water vs 1% sucrose) was “isosweet”; in experiment [3] (60 ppm NarDHC in water vs 1% sucrose) it was “notably sweeter”; in experiment [3] (60 ppm NarDHC in water vs 1.5% sucrose), “significantly less sweet”.
`C[C@H](CC[C@@H](O[C@@H]1O[C@H](CO[C@@H]2O[C@H](CO)[C@@H](O)[C@H](O)[C@H]2O)[C@@H](O)[C@H](O)[C@H]1O[C@@H]1O[C@H](CO)[C@@H](O)[C@H](O)[C@H]1O)C(C)(C)O)[C@H]1CC[C@@]2(C)[C@@H]3CC=C4[C@@H](CC[C@H](O[C@@H]5O[C@H](CO[C@@H]6O[C@H](CO)[C@@H](O)[C@H](O)[C@H]6O)[C@@H](O)[C@H](O)[C@H]5O)C4(C)C)[C@]3(C)[C@H](O)C[C@]12C` [mogroside V]: the “binding” value in experiment [1] is recorded as “bind to the transmembrane domains of TAS1R”.
As to `CCOc1ccc(C=O)cc1` [p-ethoxybenzaldehyde], the “sample sweetness (0.5% sucrose)” value was “isosweet” in experiment [2] (0.5% sucrose sample ranked against 100 ppm p-ethoxybenzaldehyde in water) and “less sweet” in experiment [2] (0.5% sucrose sample ranked against 150 ppm p-ethoxybenzaldehyde in water). Also, the “sweetness isointensity to sucrose” value in experiment [2] (7% sucrose and 75 ppm p-ethoxybenzaldehyde) stood at 8 % sucrose. The “sample sweetness (p-ethoxybenzaldehyde, 75 ppm)” value in experiment [2] (75 ppm in water vs 0.5% sucrose) and in experiment [2] (75 ppm in water vs 1% sucrose) was “less sweet” in each case. The p-ethoxybenzaldehyde sample sweetness result in experiment [2] (75 ppm p-ethoxybenzaldehyde in 7% sucrose vs 7% sucrose) is “sweeter”; in experiment [2] (75 ppm p-ethoxybenzaldehyde in 7% sucrose vs 8% sucrose), “isosweet”; in experiment [2] (75 ppm p-ethoxybenzaldehyde in 7% sucrose vs 9% sucrose), “less sweet”; in experiment [2] (75 ppm p-ethoxybenzaldehyde in 7% sucrose vs 10% sucrose), “less sweet”; in experiment [2] (75 ppm p-ethoxybenzaldehyde in 7% sucrose vs 11% sucrose), “less sweet”; in experiment [2] (100 ppm p-ethoxybenzaldehyde in 1700 ppm cyclamate vs 1700 ppm cyclamate), “sweeter”. Also, the p-ethoxybenzaldehyde sample sweetness entry is “sweeter” in experiment [2] (100 ppm p-ethoxybenzaldehyde in 1700 ppm cyclamate vs 1900 ppm cyclamate), “isosweet” in experiment [2] (100 ppm p-ethoxybenzaldehyde in 1700 ppm cyclamate vs 2100 ppm cyclamate), “less sweet” in experiment [2] (100 ppm p-ethoxybenzaldehyde in 1700 ppm cyclamate vs 2300 ppm cyclamate) and “less sweet” in experiment [2] (100 ppm p-ethoxybenzaldehyde in 1700 ppm cyclamate vs 2500 ppm cyclamate). The “sweetness equivalent to sucrose (isointensity)” value in experiment [2] (75 ppm p-ethoxybenzaldehyde in water, below the detection threshold for sweet) was 0.25 % sucrose. Moreover, the “sample sweetness (p-ethoxybenzaldehyde, 100 ppm)” value is recorded as “isosweet” in experiment [2] (100 ppm in water vs 150 ppm cyclamate), “less sweet” in experiment [2] (100 ppm in water vs 200 ppm cyclamate) and “less sweet” in experiment [2] (100 ppm in water vs 250 ppm cyclamate). In experiment [2] (100 ppm p-ethoxybenzaldehyde added to 1700 ppm cyclamate), the “cyclamate equivalent in sweetness added” value is 400 ppm cyclamate. In addition, the “sweetness A versus B” value in experiment [2] (600 ppm (A) vs 700 ppm (B) p-ethoxybenzaldehyde in water), in experiment [2] (700 ppm (A) vs 800 ppm (B) p-ethoxybenzaldehyde in water), in experiment [2] (800 ppm (A) vs 900 ppm (B) p-ethoxybenzaldehyde in water) and in experiment [2] (900 ppm (A) vs 1000 ppm (B) p-ethoxybenzaldehyde in water) was “less sweet than” each time. The same compound yielded a cyclamate isointensity in experiment [2] (1700 ppm cyclamate+100 ppm p-ethoxybenzaldehyde) of 2100 ppm cyclamate.
As to `C=C1C[C@@]23CC[C@H]4[C@@](C)(CCC[C@@]4(C)C(=O)O[C@@H]4O[C@H](CO)[C@@H](O)[C@H](O)[C@H]4O)[C@@H]2CC[C@]1(O[C@@H]1O[C@H](CO)[C@@H](O)[C@H](O[C@@H]2O[C@H](CO)[C@@H](O)[C@H](O)[C@H]2O)[C@H]1O[C@@H]1O[C@H](CO)[C@@H](O)[C@H](O)[C@H]1O)C3` [rebaudioside A], the “binding” value in experiment [1] is “bind to the transmembrane domains of TAS1R”.
As for `C=C1C[C@@]23CC[C@H]4[C@@](C)(CCC[C@@]4(C)C(=O)O[C@@H]4O[C@H](CO)[C@@H](O)[C@H](O)[C@H]4O)[C@@H]2CC[C@]1(O[C@@H]1O[C@H](CO)[C@@H](O)[C@H](O)[C@H]1O)C3` [rubusoside], the “binding” value in experiment [1] was “bind to the transmembrane domains of TAS1R”.
Turning to `C=C1C[C@@]23CC[C@H]4[C@@](C)(CCC[C@@]4(C)C(=O)O[C@@H]4O[C@H](CO)[C@@H](O)[C@H](O)[C@H]4O)[C@@H]2CC[C@]1(O[C@@H]1O[C@H](CO)[C@@H](O)[C@H](O)[C@H]1O[C@@H]1O[C@H](CO)[C@@H](O)[C@H](O)[C@H]1O)C3` [stevioside], the “binding” value in experiment [1] is listed as “bind to the transmembrane domains of TAS1R”.
